Results from US8017612B2, “Piperazine compound and use thereof as a HCV polymerase inhibitor” (priority 2006, dated 2011).
Where a name gives a salt, the structure may show the parent alone.

Legend:
[1] = target: T1, HCV polymerase (NS5B) type 1b (Hepatitis C virus genotype 1b, UniProt P26663); experiment: Assay of enzyme (HCV polymerase) inhibitory activity, type 1b enzyme; format: biochemical, HCV BK strain (type 1b); conditions: HCV polymerase inhibitory activity (IC50), 1b, type 1b enzyme 0.5 μg/ml, 25° C., 60 min
T1 construct: a region encoding NS5B (J Virol 1991 March, 65(3), 1105-13, 544 amino acids after deletion of 47 amino acids on the C-terminal); 6xHis (C); made in house; host or cells: Escherichia coli
Procedure, shortened: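 His-tagged, C-terminally truncated NS5B (BK strain, 1b; 0.5 μg/ml) incubated with compound 60 min at 25 °C on 3′UTR-derived substrate RNA (5 μg/ml), 50 μM ATP/GTP/CTP, 2 μM UTP plus [3H]UTP, pH 7.5. Acid-precipitated RNA counted; IC50 from radioactivity with and without compound.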

[2] = target: T2, HCV polymerase (NS5B) type 1a (Hepatitis C virus genotype 1a, UniProt P26664); experiment: Assay of enzyme (HCV polymerase) inhibitory activity, type 1a enzyme; format: biochemical, HCV type 1a (cloned from the blood of patients); conditions: HCV polymerase inhibitory activity (IC50), 1a, type 1a enzyme 1.5 μg/ml, 25° C., 60 min
T2 construct: made in house; host or cells: Escherichia coli (by the 'similar method' of the 1b enzyme)
Procedure, shortened: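 His-tagged NS5B, C-terminal 47 residues deleted, type 1a at 1.5 μg/ml, with 5 μg/ml HCV 3′UTR substrate RNA, 50 μM ATP/GTP/CTP, 2 μM UTP plus [3H]UTP, pH 7.5 Tris, 5 mM MgCl2; 60 min at 25° C. TCA-precipitated RNA counted by scintillation; IC50 from radioactivity with vs. without compound.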

## CC(=O)N1CCN(S(=O)(=O)c2ccc(C(C)C)cc2)C(C(=O)NCc2ccc(OC(F)(F)F)cc2)C1 (centres unmarked) [Example 53, 4-acetyl-1-(4-isopropyl-benzenesulfonyl)-piperazine-2-carboxylic acid 4-trifluoromethoxy-benzylamide]
[1]
  IC50: 0.1 to 1 µM
[2]
  IC50: 0.1 to 1 µM

## CC(=O)N1CCN(S(=O)(=O)c2ccc(C(C)C)cc2)C(C(=O)NCc2ccc(Br)cc2)C1 (centres unmarked) [Example 54, 4-acetyl-1-(4-isopropyl-benzenesulfonyl)-piperazine-2-carboxylic acid 4-bromo-benzylamide]
[1]
  IC50: > 1 µM
[2]
  IC50: > 1 µM

## CC(C)c1ccc(S(=O)(=O)N2CCN(C(=O)CO)CC2C(=O)NCc2ccc(C(F)(F)F)cc2)cc1 (centres unmarked) [Example 55, 4-(2-hydroxy-acetyl)-1-(4-isopropyl-benzenesulfonyl)-piperazine-2-carboxylic acid 4-trifluoromethyl-benzylamide]
[1]
  IC50: > 1 µM
[2]
  IC50: > 1 µM

## CC(C)c1ccc(S(=O)(=O)N2CCN(C(=O)C(C)(C)O)CC2C(=O)NCc2ccc(C(F)(F)F)cc2)cc1 (centres unmarked) [Example 56, 4-(2-hydroxy-2-methyl-propionyl)-1-(4-isopropyl-benzenesulfonyl)-piperazine-2-carboxylic acid 4-trifluoromethyl-benzylamide]
[1]
  IC50: > 1 µM
[2]
  IC50: > 1 µM

## COCC(=O)N1CCN(S(=O)(=O)c2ccc(C(C)C)cc2)C(C(=O)NCc2ccc(C(F)(F)F)cc2)C1 (centres unmarked) [Example 57, 1-(4-isopropyl-benzenesulfonyl)-4-(2-methoxy-acetyl)-piperazine-2-carboxylic acid 4-trifluoromethyl-benzylamide]
[1]
  IC50: > 1 µM
[2]
  IC50: > 1 µM

## CC(C)c1ccc(S(=O)(=O)N2CCN(C(=O)CCO)CC2C(=O)NCc2ccc(C(F)(F)F)cc2)cc1 (centres unmarked) [Example 58, 4-(3-hydroxy-propionyl)-1-(4-isopropyl-benzenesulfonyl)-piperazine-2-carboxylic acid 4-trifluoromethyl-benzylamide]
[1]
  IC50: > 1 µM
[2]
  IC50: > 1 µM

## CC(C)c1ccc(S(=O)(=O)N2CCN(C(=O)N(C)C)CC2C(=O)NCc2ccc(C(F)(F)F)cc2)cc1 (centres unmarked) [Example 59, 4-(4-isopropyl-benzenesulfonyl)-piperazine-1,3-dicarboxylic acid 1-dimethylamide 3-(4-trifluoromethyl-benzylamide)]
[1]
  IC50: > 1 µM
[2]
  IC50: > 1 µM

## CCc1ccc(S(=O)(=O)N2CCN(C(C)=O)CC2C(=O)NCc2ccc(C(F)(F)F)cc2)cc1 (centres unmarked) [Example 60, 4-acetyl-1-(4-ethyl-benzenesulfonyl)-piperazine-2-carboxylic acid 4-trifluoromethyl-benzylamide]
[1]
  IC50: > 1 µM
[2]
  IC50: > 1 µM

## CC(=O)N1CCN(S(=O)(=O)c2ccc(I)cc2)C(C(=O)NCc2ccc(C(F)(F)F)cc2)C1 (centres unmarked) [Example 61, 4-acetyl-1-(4-iodo-benzenesulfonyl)-piperazine-2-carboxylic acid 4-trifluoromethyl-benzylamide]
[1]
  IC50: > 1 µM
[2]
  IC50: > 1 µM

## CC(=O)N1CCN(S(=O)(=O)c2ccc(-n3cc(Cl)cn3)s2)C(C(=O)NCc2ccc(C(F)(F)F)cc2)C1 (centres unmarked) [Example 62, 4-acetyl-1-[5-(4-chloro-pyrazol-1-yl)-thiophene-2-sulfonyl]-piperazine-2-carboxylic acid 4-trifluoromethyl-benzylamide]
[1]
  IC50: > 1 µM
[2]
  IC50: > 1 µM

## CC(C)c1ccc(S(=O)(=O)N2CCN(C=O)CC2C(=O)NCc2ccc(C(F)(F)F)cc2)cc1 (centres unmarked) [Example 63, 4-formyl-1-(4-isopropyl-benzenesulfonyl)-piperazine-2-carboxylic acid 4-trifluoromethyl-benzylamide]
[1]
  IC50: > 1 µM
[2]
  IC50: > 1 µM

## CC(=O)N1CCN(S(=O)(=O)c2ccc(C)cc2)C(C(=O)NCc2ccc(C(F)(F)F)cc2)C1 (centres unmarked) [Example 64, 4-acetyl-1-(toluene-4-sulfonyl)-piperazine-2-carboxylic acid 4-trifluoromethyl-benzylamide]
[1]
  IC50: > 1 µM
[2]
  IC50: > 1 µM

## CC(=O)N1CCN(S(=O)(=O)c2ccc(OC(F)(F)F)cc2)C(C(=O)NCc2ccc(C(F)(F)F)cc2)C1 (centres unmarked) [Example 65, 4-acetyl-1-(4-trifluoromethoxy-benzenesulfonyl)-piperazine-2-carboxylic acid 4-trifluoromethyl-benzylamide]
[1]
  IC50: > 1 µM
[2]
  IC50: > 1 µM

## CC(=O)N1CCN(S(=O)(=O)c2ccc(Oc3cccnc3)cc2)C(C(=O)NCc2ccc(C(F)(F)F)cc2)C1 (centres unmarked) [Example 66, 4-acetyl-1-[4-(pyridin-3-yloxy)-benzenesulfonyl]-piperazine-2-carboxylic acid 4-trifluoromethyl-benzylamide hydrochloride]
[1]
  IC50: > 1 µM
[2]
  IC50: > 1 µM

## CC(=O)N1CCN(S(=O)(=O)c2ccc(C(C)C)cc2)C(C(=O)NCc2ccccc2F)C1 (centres unmarked) [Example 67, 4-acetyl-1-(4-isopropyl-benzenesulfonyl)-piperazine-2-carboxylic acid 2-fluoro-benzylamide]
[1]
  IC50: > 1 µM
[2]
  IC50: > 1 µM

## CC(=O)N1CCN(S(=O)(=O)c2ccc(C(C)C)cc2)C(C(=O)NCc2ccc(C(C)(C)C)cc2)C1 (centres unmarked) [Example 68, 4-acetyl-1-(4-isopropyl-benzenesulfonyl)-piperazine-2-carboxylic acid 4-tert-butyl-benzylamide]
[1]
  IC50: 0.1 to 1 µM
[2]
  IC50: 0.1 to 1 µM

## CC(=O)N1CCN(S(=O)(=O)c2cnc(Cl)c(Br)c2)C(C(=O)NCc2ccc(C(F)(F)F)cc2)C1 (centres unmarked) [Example 69, 4-acetyl-1-(5-bromo-6-chloro-pyridine-3-sulfonyl)-piperazine-2-carboxylic acid 4-trifluoromethyl-benzylamide hydrochloride]
[1]
  IC50: > 1 µM
[2]
  IC50: > 1 µM

## CC(=O)N1CCN(S(=O)(=O)c2ccc(N3CCOCC3)nc2)C(C(=O)NCc2ccc(C(F)(F)F)cc2)C1 (centres unmarked) [Example 70, 4-acetyl-1-(6-morpholin-4-yl-pyridine-3-sulfonyl)-piperazine-2-carboxylic acid 4-trifluoromethyl-benzylamide hydrochloride]
[1]
  IC50: > 1 µM
[2]
  IC50: > 1 µM

## COc1cccc(S(=O)(=O)N2CCN(C(C)=O)CC2C(=O)NCc2ccc(C(F)(F)F)cc2)c1 (centres unmarked) [Example 71, 4-acetyl-1-(3-methoxy-benzenesulfonyl)-piperazine-2-carboxylic acid 4-trifluoromethyl-benzylamide]
[1]
  IC50: > 1 µM
[2]
  IC50: > 1 µM

## CCCc1ccc(S(=O)(=O)N2CCN(C(C)=O)CC2C(=O)NCc2ccc(C(F)(F)F)cc2)cc1 (centres unmarked) [Example 72, 4-acetyl-1-(4-propyl-benzenesulfonyl)-piperazine-2-carboxylic acid 4-trifluoromethyl-benzylamide]
[1]
  IC50: 0.1 to 1 µM
[2]
  IC50: > 1 µM

## CC(=O)N1CCN(S(=O)(=O)c2ccc(-c3ccccc3)cc2)C(C(=O)NCc2ccc(C(F)(F)F)cc2)C1 (centres unmarked) [Example 73, 4-acetyl-1-(biphenyl-4-sulfonyl)-piperazine-2-carboxylic acid 4-trifluoromethyl-benzylamide]
[1]
  IC50: > 1 µM
[2]
  IC50: > 1 µM

## CC(=O)N1CCN(S(=O)(=O)c2cc3ccccc3s2)C(C(=O)NCc2ccc(C(F)(F)F)cc2)C1 (centres unmarked) [Example 74, 4-acetyl-1-(benzo[b]thiophene-2-sulfonyl)-piperazine-2-carboxylic acid 4-trifluoromethyl-benzylamide]
[1]
  IC50: > 1 µM
[2]
  IC50: > 1 µM

## CC(=O)N1CCN(S(=O)(=O)c2ccc(C(C)C)s2)C(C(=O)NCc2ccc(C(F)(F)F)cc2)C1 (centres unmarked) [Example 75, 4-acetyl-1-(5-isopropyl-thiophene-2-sulfonyl)-piperazine-2-carboxylic acid 4-trifluoromethyl-benzylamide]
[1]
  IC50: > 1 µM
[2]
  IC50: > 1 µM

## COC(=O)c1ccc(CNC(=O)C2CN(C(C)=O)CCN2S(=O)(=O)c2ccc(C(C)C)cc2)cc1 (centres unmarked) [Example 76, 4-({[4-acetyl-1-(4-isopropyl-benzenesulfonyl)-piperazine-2-carbonyl]-amino}-methyl)-benzoic acid methyl ester]
[1]
  IC50: > 1 µM
[2]
  IC50: > 1 µM

## CC(=O)N1CCN(S(=O)(=O)c2ccc(C(C)C)cc2)C(C(=O)NCc2ccc([N+](=O)[O-])cc2)C1 (centres unmarked) [Example 77, 4-acetyl-1-(4-isopropyl-benzenesulfonyl)-piperazine-2-carboxylic acid 4-nitro-benzylamide]
[1]
  IC50: > 1 µM
[2]
  IC50: > 1 µM

## CC(=O)N1CCN(S(=O)(=O)c2ccc(C(C)C)cc2)C(C(=O)NCc2cccc(F)c2)C1 (centres unmarked) [Example 78, 4-acetyl-1-(4-isopropyl-benzenesulfonyl)-piperazine-2-carboxylic acid 3-fluoro-benzylamide]
[1]
  IC50: > 1 µM
[2]
  IC50: > 1 µM

## CC(=O)N1CCN(S(=O)(=O)c2ccc(C(C)C)cc2)C(C(=O)NCCc2c[nH]c3ccccc23)C1 (centres unmarked) [Example 79, 4-acetyl-1-(4-isopropyl-benzenesulfonyl)-piperazine-2-carboxylic acid [2-(1H-indol-3-yl)-ethyl]-amide]
[1]
  IC50: > 1 µM
[2]
  IC50: > 1 µM

## CC(=O)N1CCN(S(=O)(=O)c2ccc(C(C)C)cc2)C(C(=O)NCc2ccc(N3CCOCC3)cc2)C1 (centres unmarked) [Example 80, 4-acetyl-1-(4-isopropyl-benzenesulfonyl)-piperazine-2-carboxylic acid 4-morpholin-4-yl-benzylamide]
[1]
  IC50: > 1 µM
[2]
  IC50: > 1 µM
